Assay results published in the supplement of paper PMC10627819.

How the values were obtained:
[1] = system: S. aureus Newman; test: fitness (endpoint OD595 vs no drug) (fraction); higher = more growth
Outline: (§1)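 In 384-well plates at 37 °C, cultures began at OD595 0.01 in 30 µl, with 55 µl used for S. pneumoniae. OD595 readings every 30 min for 14 h were corrected by the first reading. Fitness divides the stationary-phase transition optical density by the robust mean of no-drug control wells. The result is capped at 1.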

[2] = system: S. aureus DSM 20231; test: as above
Outline: as §1

[3] = system: S. pneumoniae D39V; test: as above
Outline: as §1

[4] = system: B. subtilis 168; test: as above
Outline: as §1

[5] = system: S. aureus Newman; test: Bliss interaction score (quartile over a dose matrix) (fitness difference); higher = more antagonism (negative = synergy)
Outline: (§2)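 At entry into stationary phase, OD595 was recorded and divided by the robust mean of the no-drug wells on that plate, with any value above 1 set to 1. This gives the fitness measure used throughout. Single-drug fitness was inferred from combination data, and the Bliss score, observed minus product-expected fitness, is shown as quartiles across technical, biological and donor/recipient replicates.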

[6] = system: S. aureus DSM 20231; test: as above
Outline: as §2

[7] = system: S. pneumoniae D39V; test: as above
Outline: as §2

[8] = system: B. subtilis 168; test: as above
Outline: as §2
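Throughout, for Bliss interaction score (quartile over a dose matrix): first quartile when negative (synergy) and third quartile when positive (antagonism).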

CCC[C@@H]1C[C@@H](C(=O)N[C@@H]([C@H]2O[C@H](SC)[C@H](O)[C@@H](O)[C@H]2O)[C@H](C)Cl)N(C)C1 [Clindamycin] + CN(N=O)C(=O)N[C@@H](C=O)[C@@H](O)[C@H](O)[C@H](O)CO [Streptozotocin]
fitness
Details | partner 0.15 µg/mL | partner 0.3 µg/mL | partner 0.6 µg/mL | partner 1.2 µg/mL | partner 2.4 µg/mL | partner 4.8 µg/mL
[1], first compound 0.0312 µg/mL | 0.608 | 0.612 | 0.475 | – | – | –
[1], first compound 0.0625 µg/mL | 0.329 | 0.336 | 0.243 | – | – | –
[1], first compound 0.125 µg/mL | 0.0373 | 0.0413 | 0.0299 | – | – | –
[2], first compound 0.0625 µg/mL | 0.0812 | 0.0698 | 0.0805 | – | – | –
[2], first compound 0.125 µg/mL | 0.0369 | 0.0299 | 0.0239 | – | – | –
[3], first compound 0.0125 µg/mL | – | – | – | 0.661 | 0.682 | 0.688
[3], first compound 0.025 µg/mL | – | – | – | 0.413 | 0.439 | 0.445
[3], first compound 0.05 µg/mL | – | – | – | 0.175 | 0.207 | 0.196

fitness, one replicate
Details | first compound 0.0039 µg/mL | first compound 0.0078 µg/mL | first compound 0.015 µg/mL | first compound 0.0156 µg/mL | first compound 0.03 µg/mL | first compound 0.06 µg/mL | first compound 0.0625 µg/mL | first compound 0.125 µg/mL | first compound 0.25 µg/mL
[3], partner 1.2 µg/mL | – | – | 0.817 | – | 0.702 | 0.595 | – | – | –
[3], partner 2.4 µg/mL | – | – | 0.908 | – | 0.79 | 0.666 | – | – | –
[3], partner 4.8 µg/mL | – | – | 0.909 | – | 0.71 | 0.554 | – | – | –
[4], partner 0.15 µg/mL | 1 | 0.954 | – | 0.951 | – | – | 0.545 | 0.41 | 0.378
[4], partner 0.3 µg/mL | ≥ 1 | 0.857 | – | 0.894 | – | – | 0.504 | 0.383 | 0.366
[4], partner 0.6 µg/mL | ≥ 1 | 0.915 | – | 0.89 | – | – | 0.521 | 0.374 | 0.365

Details | Bliss interaction score
[5] | 0.0448
[6] | -0.0342
[7] | -0.0563
[8] | 0.0373

CCC[C@@H]1C[C@@H](C(=O)N[C@@H]([C@H]2O[C@H](SC)[C@H](O)[C@@H](O)[C@H]2O)[C@H](C)Cl)N(C)C1 [Clindamycin] + CN[C@@H]1[C@H](O)[C@H](NC)[C@H]2O[C@@]3(O)C(=O)C[C@@H](C)O[C@H]3O[C@@H]2[C@H]1O [Spectinomycin]
fitness
Details | partner 2 µg/mL | partner 4 µg/mL | partner 8 µg/mL | partner 16 µg/mL
[1], first compound 0.0312 µg/mL | – | 0.564 | 0.579 | 0.466
[1], first compound 0.125 µg/mL | – | 0.0748 | 0.109 | 0.0841
[2], first compound 0.125 µg/mL | – | 0.0615 | 0.0809 | 0.0399
[3], first compound 0.0125 µg/mL | – | 0.672 | 0.656 | 0.601
[3], first compound 0.025 µg/mL | – | 0.457 | 0.409 | 0.396
[3], first compound 0.05 µg/mL | – | 0.248 | 0.231 | 0.19
[4], first compound 0.0625 µg/mL | 0.508 | 0.46 | 0.383 | –
[4], first compound 0.125 µg/mL | 0.37 | 0.365 | 0.251 | –
[4], first compound 0.25 µg/mL | 0.363 | 0.327 | 0.155 | –

one replicate
Details | fitness
[1], first compound 0.0312 µg/mL, partner 32 µg/mL | 0.0927
[1], first compound 0.0312 µg/mL, partner 64 µg/mL | 0.0581
[1], first compound 0.0625 µg/mL, partner 32 µg/mL | 0.0269
[1], first compound 0.0625 µg/mL, partner 64 µg/mL | 0.0621
[1], first compound 0.125 µg/mL, partner 32 µg/mL | 0.0191
[1], first compound 0.125 µg/mL, partner 64 µg/mL | 0.0457
[2], first compound 0.0312 µg/mL, partner 32 µg/mL | 0.105
[2], first compound 0.0312 µg/mL, partner 64 µg/mL | 0.0235
[2], first compound 0.0625 µg/mL, partner 32 µg/mL | 0.0623
[2], first compound 0.0625 µg/mL, partner 64 µg/mL | 0.0291
[2], first compound 0.125 µg/mL, partner 32 µg/mL | 0.0592
[2], first compound 0.125 µg/mL, partner 64 µg/mL | 0.0326
[3], first compound 0.015 µg/mL, partner 4 µg/mL | 0.935
[3], first compound 0.015 µg/mL, partner 8 µg/mL | 0.899
[3], first compound 0.03 µg/mL, partner 4 µg/mL | 0.765
[3], first compound 0.03 µg/mL, partner 8 µg/mL | 0.754
[3], first compound 0.06 µg/mL, partner 4 µg/mL | 0.657
[3], first compound 0.06 µg/mL, partner 8 µg/mL | 0.671
[4], first compound 0.0039 µg/mL, partner 2 µg/mL | 0.988
[4], first compound 0.0039 µg/mL, partner 4 µg/mL | 0.98
[4], first compound 0.0039 µg/mL, partner 8 µg/mL | ≥ 1
[4], first compound 0.0078 µg/mL, partner 2 µg/mL | 0.897
[4], first compound 0.0078 µg/mL, partner 4 µg/mL | 0.898
[4], first compound 0.0078 µg/mL, partner 8 µg/mL | 0.904
[4], first compound 0.0156 µg/mL, partner 2 µg/mL | 0.904
[4], first compound 0.0156 µg/mL, partner 4 µg/mL | 0.903
[4], first compound 0.0156 µg/mL, partner 8 µg/mL | 0.851

Details | Bliss interaction score
[5] | -0.147
[6] | -0.0511
[7] | 0.0544
[8] | -0.0853

CCC[C@@H]1C[C@@H](C(=O)N[C@@H]([C@H]2O[C@H](SC)[C@H](O)[C@@H](O)[C@H]2O)[C@H](C)Cl)N(C)C1 [Clindamycin] + COc1c(N2C[C@@H]3CCCN[C@@H]3C2)c(F)cc2c(=O)c(C(=O)O)cn(C3CC3)c12 [Moxifloxacin]
Details | fitness
[1], first compound 0.0312 µg/mL, partner 0.0075 µg/mL | 0.63
[1], first compound 0.0312 µg/mL, partner 0.015 µg/mL | 0.553
[1], first compound 0.0625 µg/mL, partner 0.015 µg/mL | 0.361
[1], first compound 0.0625 µg/mL, partner 0.03 µg/mL | 0.251
[1], first compound 0.125 µg/mL, partner 0.0075 µg/mL | 0.111
[1], first compound 0.125 µg/mL, partner 0.015 µg/mL | 0.0621
[1], first compound 0.125 µg/mL, partner 0.03 µg/mL | 0.0456
[2], first compound 0.0625 µg/mL, partner 0.0075 µg/mL | 0.0874
[2], first compound 0.0625 µg/mL, partner 0.015 µg/mL | 0.0867
[2], first compound 0.125 µg/mL, partner 0.0075 µg/mL | 0.0621
[2], first compound 0.125 µg/mL, partner 0.015 µg/mL | 0.0276
[2], first compound 0.125 µg/mL, partner 0.03 µg/mL | 0.0423
[3], first compound 0.0125 µg/mL, partner 0.0312 µg/mL | 0.182
[3], first compound 0.0125 µg/mL, partner 0.0625 µg/mL | 0.0996
[3], first compound 0.0125 µg/mL, partner 0.125 µg/mL | 0.0702
[3], first compound 0.015 µg/mL, partner 0.005 µg/mL | 0.87
[3], first compound 0.015 µg/mL, partner 0.01 µg/mL | 0.932
[3], first compound 0.015 µg/mL, partner 0.02 µg/mL | 0.88
[3], first compound 0.025 µg/mL, partner 0.0312 µg/mL | 0.13
[3], first compound 0.025 µg/mL, partner 0.0625 µg/mL | 0.107
[3], first compound 0.025 µg/mL, partner 0.125 µg/mL | 0.067
[3], first compound 0.03 µg/mL, partner 0.005 µg/mL | 0.778
[3], first compound 0.03 µg/mL, partner 0.01 µg/mL | 0.798
[3], first compound 0.03 µg/mL, partner 0.02 µg/mL | 0.744
[3], first compound 0.05 µg/mL, partner 0.0312 µg/mL | 0.0658
[3], first compound 0.05 µg/mL, partner 0.0625 µg/mL | 0.0748
[3], first compound 0.05 µg/mL, partner 0.125 µg/mL | 0.0719
[3], first compound 0.06 µg/mL, partner 0.005 µg/mL | 0.627
[3], first compound 0.06 µg/mL, partner 0.01 µg/mL | 0.674
[3], first compound 0.06 µg/mL, partner 0.02 µg/mL | 0.606
[4], first compound 0.0625 µg/mL, partner 0.0312 µg/mL | 0.0693
[4], first compound 0.0625 µg/mL, partner 0.0625 µg/mL | 0.0631
[4], first compound 0.0625 µg/mL, partner 0.125 µg/mL | 0.046
[4], first compound 0.0625 µg/mL, partner 2 µg/mL | 0.0362
[4], first compound 0.0625 µg/mL, partner 4 µg/mL | 0.0401
[4], first compound 0.0625 µg/mL, partner 8 µg/mL | 0.0456
[4], first compound 0.125 µg/mL, partner 0.0312 µg/mL | 0.0619
[4], first compound 0.125 µg/mL, partner 0.0625 µg/mL | 0.0693
[4], first compound 0.125 µg/mL, partner 0.125 µg/mL | 0.0534
[4], first compound 0.125 µg/mL, partner 2 µg/mL | 0.0368
[4], first compound 0.125 µg/mL, partner 4 µg/mL | 0.0309
[4], first compound 0.125 µg/mL, partner 8 µg/mL | 0.0299
[4], first compound 0.25 µg/mL, partner 0.0312 µg/mL | 0.0478
[4], first compound 0.25 µg/mL, partner 0.0625 µg/mL | 0.0597
[4], first compound 0.25 µg/mL, partner 0.125 µg/mL | 0.0484
[4], first compound 0.25 µg/mL, partner 2 µg/mL | 0.0444
[4], first compound 0.25 µg/mL, partner 4 µg/mL | 0.0401
[4], first compound 0.25 µg/mL, partner 8 µg/mL | 0.0192

fitness, one replicate
Details | first compound 0.0039 µg/mL | first compound 0.0078 µg/mL | first compound 0.0156 µg/mL | first compound 0.0312 µg/mL | first compound 0.0625 µg/mL | first compound 0.125 µg/mL
[2], partner 0.06 µg/mL | – | – | – | 0.628 | 0.628 | 0.109
[2], partner 0.12 µg/mL | – | – | – | 0.515 | 0.516 | 0.0784
[4], partner 0.0312 µg/mL | 0.73 | 0.575 | 0.5 | – | – | –
[4], partner 0.0625 µg/mL | 0.061 | 0.05 | 0.0579 | – | – | –
[4], partner 0.125 µg/mL | 0.0192 | 0.0118 | 0.0291 | – | – | –

Details | Bliss interaction score
[5] | 0.0705
[6] | 0.0751
[7] | 0.0859
[8] | 0.041
